{"source": "paper PMC10331583", "about": "“Control of fibrosis with enhanced safety via asymmetric inhibition of prolyl‐tRNA synthetase 1” (EMBO Molecular Medicine, 2023)", "key": {"WI‐26 VA4 cells [1]": {"test_system": "WI‐26 VA4 cells", "test": "Puromycin incorporation assay", "assay_type": "cell-based, human", "settings": "log(inhibitor) vs. response, variable slope (four parameters); concentration in nM", "procedure": "After being rinsed with cold PBS twice, the cells were collected and resuspended in 200 μl of the carbonate bicarbonate buffer (Sigma Aldrich, C3041‐50CAP) with protease inhibitor. The cell lysates were obtained by sonication and centrifugation at 20,000 g for 15 min at 4°C. After protein quantification using a Pierce™ BCA Protein Assay Kit (Thermo Fisher Scientific, 23225), 400 ng of the proteins was coated to ELISA plates for 18 h at 4°C. […] The plates were rinsed with the washing buffer for three times after each antibody incubation step. […] The amount of puromycin incorporated in proteins was determined by measuring the absorbance at 450 nm (reference wavelength at 620 nm). Experimental values marked in red with strikethrough text in the Figure Source Data file were excluded from the analysis. These values were determined by considering the values of biological and technical replicates under the same condition, as well as the values at the former and later chemical concentrations."}, "[2]": {"test": "CellTiter‐Glo assay (cytotoxicity)", "settings": "human, WI-26 VA4 cells"}, "WI‐26 VA4 cells [3]": {"test_system": "WI‐26 VA4 cells", "test": "CellTiter‐Glo assay (cytotoxicity)", "settings": "for activity at 0.003 µM / activity at 0.01 µM / activity at 0.03 µM / activity at 0.1 µM / activity at 0.3 µM / activity at 1 µM / activity at 3 µM / activity at 10 µM / activity at 30 µM / activity at 100 µM: Homo sapiens"}, "WI‐26 VA4 cells [4]": {"test_system": "WI‐26 VA4 cells", "test": "Collagen ELISA (secreted pro‐collagen I)"}, "[5]": {"settings": "log(inhibitor) vs. response, variable slope (four parameters), concentration in nM"}}, "note": "Where “and” joins values, the source holds several entries; their conditions need not be identical. Equal values may be shown once. Read-outs that look alike come from different tables or passages of the source.", "data": [{"smiles": "Cc1c(Cl)ccc2c1ncn2CC(=O)C[C@H]1NCCC[C@@H]1O", "note": "[DWN11748]", "values": [{"measurement": "Puromycin, LogIC50 (best-fit value)", "setting": "WI‐26 VA4 cells [1]", "value": 3.428}, {"measurement": "CC50 at 72 h", "setting": "[2]", "value": 1440, "unit": "nM"}, {"measurement": "activity at 0.003 µM", "setting": "WI‐26 VA4 cells [3]; WI26VA4, read-out: CellTiter-Glo % of control, 3 nM, Experiment #1, replicates", "value": 99.9, "unit": "%"}, {"measurement": "activity at 0.003 µM", "setting": "WI‐26 VA4 cells [3]; WI26VA4, read-out: CellTiter-Glo % of control, 3 nM, Experiment #2, replicates", "value": 90.9, "unit": "%"}, {"measurement": "activity at 0.01 µM", "setting": "WI‐26 VA4 cells [3]; WI26VA4, read-out: CellTiter-Glo % of control, 10 nM, Experiment #1, replicates", "value": 90.9, "unit": "%"}, {"measurement": "activity at 0.01 µM", "setting": "WI‐26 VA4 cells [3]; WI26VA4, read-out: CellTiter-Glo % of control, 10 nM, Experiment #2, replicates", "value": 98.9, "unit": "%"}, {"measurement": "activity at 0.03 µM", "setting": "WI‐26 VA4 cells [3]; WI26VA4, read-out: CellTiter-Glo % of control, 30 nM, Experiment #1, replicates", "value": 91.9, "unit": "%"}, {"measurement": "activity at 0.03 µM", "setting": "WI‐26 VA4 cells [3]; WI26VA4, read-out: CellTiter-Glo % of control, 30 nM, Experiment #2, replicates", "value": 83.2, "unit": "%"}, {"measurement": "activity at 0.1 µM", "setting": "WI‐26 VA4 cells [3]; WI26VA4, read-out: CellTiter-Glo % of control, 100 nM, Experiment #1, replicates", "value": 103, "unit": "%"}, {"measurement": "activity at 0.1 µM", "setting": "WI‐26 VA4 cells [3]; WI26VA4, read-out: CellTiter-Glo % of control, 100 nM, Experiment #2, replicates", "value": 86, "unit": "%"}, {"measurement": "activity at 0.3 µM", "setting": "WI‐26 VA4 cells [3]; WI26VA4, read-out: CellTiter-Glo % of control, 300 nM, Experiment #1, replicates", "value": 83.6, "unit": "%"}, {"measurement": "activity at 0.3 µM", "setting": "WI‐26 VA4 cells [3]; WI26VA4, read-out: CellTiter-Glo % of control, 300 nM, Experiment #2, replicates", "value": 68.5, "unit": "%"}, {"measurement": "activity at 1 µM", "setting": "WI‐26 VA4 cells [3]; WI26VA4, read-out: CellTiter-Glo % of control, 1000 nM, Experiment #1, replicates", "value": 70.6, "unit": "%"}, {"measurement": "activity at 1 µM", "setting": "WI‐26 VA4 cells [3]; WI26VA4, read-out: CellTiter-Glo % of control, 1000 nM, Experiment #2, replicates", "value": 67.6, "unit": "%"}, {"measurement": "activity at 3 µM", "setting": "WI‐26 VA4 cells [3]; WI26VA4, read-out: CellTiter-Glo % of control, 3000 nM, Experiment #1, replicates", "value": 29.5, "unit": "%"}, {"measurement": "activity at 3 µM", "setting": "WI‐26 VA4 cells [3]; WI26VA4, read-out: CellTiter-Glo % of control, 3000 nM, Experiment #2, replicates", "value": 29.4, "unit": "%"}, {"measurement": "activity at 10 µM", "setting": "WI‐26 VA4 cells [3]; WI26VA4, read-out: CellTiter-Glo % of control, 10000 nM, Experiment #1, replicates", "value": 30.3, "unit": "%"}, {"measurement": "activity at 10 µM", "setting": "WI‐26 VA4 cells [3]; WI26VA4, read-out: CellTiter-Glo % of control, 10000 nM, Experiment #2, replicates", "value": 20.9, "unit": "%"}, {"measurement": "activity at 30 µM", "setting": "WI‐26 VA4 cells [3]; WI26VA4, read-out: CellTiter-Glo % of control, 30000 nM, Experiment #1, replicates", "value": 18.8, "unit": "%"}, {"measurement": "activity at 30 µM", "setting": "WI‐26 VA4 cells [3]; WI26VA4, read-out: CellTiter-Glo % of control, 30000 nM, Experiment #2, replicates", "value": 10.1, "unit": "%"}, {"measurement": "activity at 100 µM", "setting": "WI‐26 VA4 cells [3]; WI26VA4, read-out: CellTiter-Glo % of control, 100000 nM, Experiment #1, replicates", "value": 0.73, "unit": "%"}, {"measurement": "activity at 100 µM", "setting": "WI‐26 VA4 cells [3]; WI26VA4, read-out: CellTiter-Glo % of control, 100000 nM, Experiment #2, replicates", "value": 0.58, "unit": "%"}, {"measurement": "activity at 0.003 µM", "setting": "WI‐26 VA4 cells [3]; WI26VA4, read-out: CellTiter-Glo % of control, average, 3 nM, average", "value": 102, "unit": "%"}, {"measurement": "activity at 0.01 µM", "setting": "WI‐26 VA4 cells [3]; WI26VA4, read-out: CellTiter-Glo % of control, average, 10 nM, average", "value": 96.5, "unit": "%"}, {"measurement": "activity at 0.03 µM", "setting": "WI‐26 VA4 cells [3]; WI26VA4, read-out: CellTiter-Glo % of control, average, 30 nM, average", "value": 91.9, "unit": "%"}, {"measurement": "activity at 0.1 µM", "setting": "WI‐26 VA4 cells [3]; WI26VA4, read-out: CellTiter-Glo % of control, average, 100 nM, average", "value": 94.6, "unit": "%"}, {"measurement": "activity at 0.3 µM", "setting": "WI‐26 VA4 cells [3]; WI26VA4, read-out: CellTiter-Glo % of control, average, 300 nM, average", "value": 75.5, "unit": "%"}, {"measurement": "activity at 1 µM", "setting": "WI‐26 VA4 cells [3]; WI26VA4, read-out: CellTiter-Glo % of control, average, 1000 nM, average", "value": 63.5, "unit": "%"}, {"measurement": "activity at 3 µM", "setting": "WI‐26 VA4 cells [3]; WI26VA4, read-out: CellTiter-Glo % of control, average, 3000 nM, average", "value": 27.5, "unit": "%"}, {"measurement": "activity at 10 µM", "setting": "WI‐26 VA4 cells [3]; WI26VA4, read-out: CellTiter-Glo % of control, average, 10000 nM, average", "value": 25.4, "unit": "%"}, {"measurement": "activity at 30 µM", "setting": "WI‐26 VA4 cells [3]; WI26VA4, read-out: CellTiter-Glo % of control, average, 30000 nM, average", "value": 13.7, "unit": "%"}, {"measurement": "activity at 100 µM", "setting": "WI‐26 VA4 cells [3]; WI26VA4, read-out: CellTiter-Glo % of control, average, 100000 nM, average", "value": 0.5, "unit": "%"}, {"measurement": "CellTiter-Glo LogIC50 (best-fit value)", "setting": "WI‐26 VA4 cells [3]; [5]", "value": 3.159}, {"measurement": "Collagen, % of control (single replicates per experiment)", "setting": "WI‐26 VA4 cells [4]; 3 nM, 0.003 µM", "value": "95.16 % of control and 105.95 % of control and 100.28 % of control and 91.81 % of control and 92.46 % of control and 107.08 % of control and 97.10 % of control and 100.74 % of control and 124.62 % of control and 100.86 % of control"}, {"measurement": "Collagen, % of control (single replicates per experiment)", "setting": "WI‐26 VA4 cells [4]; 100 nM, 0.1 µM", "value": "102.93 % of control and 54.86 % of control and 79.76 % of control and 92.40 % of control and 101.85 % of control and 87.72 % of control and 81.93 % of control and 104.58 % of control and 120.36 % of control"}, {"measurement": "CC50/collagen IC50", "setting": "WI‐26 VA4 cells [4]; Fig 5E", "value": 5.39}, {"measurement": "IC50", "setting": "WI‐26 VA4 cells [4]; Homo sapiens, WI26VA4, read-out: Collagen IC50 (best-fit value), log(inhibitor) vs. response, variable slope (four parameters) (converted)", "value": 267, "unit": "nM"}, {"measurement": "activity at 0.03 µM", "setting": "WI‐26 VA4 cells [4]; Homo sapiens, WI26VA4, read-out: Collagen, % of control (single replicates per experiment), 30 nM", "value": 104, "unit": "%"}, {"measurement": "activity at 0.3 µM", "setting": "WI‐26 VA4 cells [4]; Homo sapiens, WI26VA4, read-out: Collagen, % of control (single replicates per experiment), 300 nM", "value": 46.5, "unit": "%"}, {"measurement": "activity at 1 µM", "setting": "WI‐26 VA4 cells [4]; Homo sapiens, WI26VA4, read-out: Collagen, % of control (single replicates per experiment), 1000 nM", "value": 7.82, "unit": "%"}, {"measurement": "activity at 0.003 µM", "setting": "WI‐26 VA4 cells [4]; Homo sapiens, WI26VA4, read-out: Collagen, % of control, average, 3 nM, average", "value": 102, "unit": "%"}, {"measurement": "activity at 0.01 µM", "setting": "WI‐26 VA4 cells [4]; Homo sapiens, WI26VA4, read-out: Collagen, % of control, average, 10 nM, average", "value": 100, "unit": "%"}, {"measurement": "activity at 0.03 µM", "setting": "WI‐26 VA4 cells [4]; Homo sapiens, WI26VA4, read-out: Collagen, % of control, average, 30 nM, average", "value": 97.7, "unit": "%"}, {"measurement": "activity at 0.1 µM", "setting": "WI‐26 VA4 cells [4]; Homo sapiens, WI26VA4, read-out: Collagen, % of control, average, 100 nM, average", "value": 88.9, "unit": "%"}, {"measurement": "activity at 0.3 µM", "setting": "WI‐26 VA4 cells [4]; Homo sapiens, WI26VA4, read-out: Collagen, % of control, average, 300 nM, average", "value": 45.3, "unit": "%"}, {"measurement": "activity at 1 µM", "setting": "WI‐26 VA4 cells [4]; Homo sapiens, WI26VA4, read-out: Collagen, % of control, average, 1000 nM, average", "value": 9.08, "unit": "%"}, {"measurement": "activity at 3 µM", "setting": "WI‐26 VA4 cells [4]; Homo sapiens, WI26VA4, read-out: Collagen, % of control, average, 3000 nM, average", "value": 2.58, "unit": "%"}, {"measurement": "activity at 10 µM", "setting": "WI‐26 VA4 cells [4]; Homo sapiens, WI26VA4, read-out: Collagen, % of control, average, 10000 nM, average", "value": 2.33, "unit": "%"}, {"measurement": "Collagen HillSlope (best-fit value)", "setting": "WI‐26 VA4 cells [4]; log(inhibitor) vs. response, variable slope (four parameters)", "value": -2.011}, {"measurement": "Collagen LogIC50 (best-fit value)", "setting": "WI‐26 VA4 cells [4]; [5]", "value": 2.427}, {"measurement": "Relative (CC50)/(collagen IC50)", "setting": "WI‐26 VA4 cells [4]; relative to HF, Fig 5E", "value": 1.61}]}]}
